Reference: patent US9113629B2, “4-amino-6-(4-substituted-phenyl)-picolinates and 6-amino-2-(4-substituted-phenyl)-pyrimidine-4-carboxylates and their use as herbicides” (DOW AGROSCIENCES LLC, priority 2013, dated 2015)
Like-named read-outs stand apart in the source and are kept apart here.

Legend:
Assay in all cases: Post-emergent Test III, herbicidal activity in wheat and barley
Type in all cases: in vivo
LAMSS = details: Table 8, 21 d; for GR50 LAMSS: dose for 50 percent growth reduction; for GR50 LAMSS / GR80 LAMSS: probit analysis; for GR80 LAMSS: dose for 80 percent growth reduction; for pest or weed control at 35 g/ha / pest or weed control at 70 g/ha / pest or weed control at 140 g/ha: post-emergence, 504 h, post-emergent, read-out: Visual Growth Reduction (%) 21 Days After Application LAMSS; for pest or weed control at 35 g/ha: 35 g ai/ha; for pest or weed control at 70 g/ha: 70 g ai/ha; for pest or weed control at 140 g/ha: 140 g ai/ha
Summary of the method: (§1)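 GR20, GR50, GR80 and GR90 come from probit analysis of visual injury scores (0 = none, 100 = complete kill) taken 21 d after treatment. Foliar application was by track sprayer delivering 187 L/ha at five rates, from high down to 1/16×, onto greenhouse plants at the 2–3 leaf stage, with solvent-blank controls.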

[1] = system: PAPRH: common poppy (Papaver rhoeas); details: Table 8, 21 d; for pest or weed control at 35 g/ha / pest or weed control at 70 g/ha / pest or weed control at 140 g/ha: Papaver rhoeas, post-emergence, 504 h, post-emergent, read-out: Visual Growth Reduction (%) 21 Days After Application PAPRH; for pest or weed control at 35 g/ha: 35 g ai/ha; for pest or weed control at 70 g/ha: 70 g ai/ha; for pest or weed control at 140 g/ha: 140 g ai/ha; for GR50 PAPRH: dose for 50 percent growth reduction; for GR50 PAPRH / GR80 PAPRH: probit analysis; for GR80 PAPRH: dose for 80 percent growth reduction
Summary of the method: as §1

[2] = system: VERPE: bird's-eye speedwell (veronica persica); details: for GR50 VERPE: dose for 50 percent growth reduction; for GR50 VERPE / GR80 VERPE: probit analysis; for GR80 VERPE: dose for 80 percent growth reduction; for pest or weed control at 35 g/ha / pest or weed control at 70 g/ha / pest or weed control at 140 g/ha: Veronica persica, post-emergence, 504 h; for pest or weed control at 35 g/ha: 35 g ai/ha; for pest or weed control at 70 g/ha: 70 g ai/ha; for pest or weed control at 140 g/ha: 140 g ai/ha
Summary of the method: as §1

[3] = Table 8, post-emergent, 21 d, read-out: Visual Growth Reduction (%) 21 Days After Application VERPE
[4] = 21 days after application, read-out: Visual Gorowth Reduction (%) 21 days After Application VERPE

## COC(=O)c1nc(-c2ccc(C#N)c(F)c2)c(F)c(N)c1Cl [Compound 135, methyl 4-amino-3-chloro-6-(4-cyano-3-fluorophenyl)-5-fluoropicolinate]
LAMSS
  GR50 LAMSS: 1 g ai/ha
  GR80 LAMSS: 19 g ai/ha
  pest or weed control at 35 g/ha: 75 to 84%
  pest or weed control at 70 g/ha: 85 to 94%
  pest or weed control at 140 g/ha: 85 to 94%
[1]
  pest or weed control at 35 g/ha: 85 to 94%
  pest or weed control at 70 g/ha: 85 to 94%
  pest or weed control at 140 g/ha: 95 to 100%
  GR50 PAPRH: 1 g ai/ha
  GR80 PAPRH: 1 g ai/ha
[2]; Table 8, 21 d
  GR50 VERPE: 24 g ai/ha
  GR80 VERPE: 78 g ai/ha
[2]; [3]
  pest or weed control at 35 g/ha: 60 to 74%
  pest or weed control at 70 g/ha: 75 to 84%
  pest or weed control at 140 g/ha: 85 to 94%

## COC(=O)c1nc(-c2ccc(I)c(F)c2)c(C)c(N)c1Cl [Compound 79, Methyl 4-amino-3-chloro-6-(3-fluoro-4-iodophenyl)-5-methylpicolinate]
LAMSS
  GR50 LAMSS: 27 g ai/ha
  GR80 LAMSS: 72 g ai/ha
  pest or weed control at 35 g/ha: 60 to 74%
  pest or weed control at 70 g/ha: 60 to 74%
[1]
  pest or weed control at 35 g/ha: 95 to 100%
  pest or weed control at 70 g/ha: 95 to 100%
  GR50 PAPRH: 1 g ai/ha
  GR80 PAPRH: 1 g ai/ha
[2]; Table 8, 21 d
  GR50 VERPE: 2 g ai/ha
  GR80 VERPE: 37 g ai/ha
[2]; [3]
  pest or weed control at 35 g/ha: 75 to 84%
  pest or weed control at 70 g/ha: 85 to 94%

## Nc1cc(-c2cc(F)c(Br)cc2F)nc(C(=O)O)c1Cl [Compound 3]
LAMSS
  GR50 LAMSS: 1 g ai/ha
  GR80 LAMSS: 1 g ai/ha
  pest or weed control at 35 g/ha: 95 to 100%
  pest or weed control at 70 g/ha: 95 to 100%
[1]
  pest or weed control at 35 g/ha: 95 to 100%
  pest or weed control at 70 g/ha: 95 to 100%
  GR50 PAPRH: 1 g ai/ha
  GR80 PAPRH: 1 g ai/ha
[2]; Table 8, 21 d
  GR50 VERPE: 34 g ai/ha
  GR80 VERPE: 126 g ai/ha
[2]; [3]
  pest or weed control at 35 g/ha: 45 to 59%
  pest or weed control at 70 g/ha: 60 to 74%

## C=Cc1c(C(=O)O)nc(-c2ccc(C(F)(F)F)c(F)c2)c(F)c1N [Compound 86]
[2]; [4]
  pest or weed control at 35 g/ha: 85 to 94%
  pest or weed control at 70 g/ha: 85 to 94%
[2]; 21 days after application
  GR50 VERPE: 15 g ai/ha
  GR80 VERPE: 34 g ai/ha

## COc1c(N)nc(-c2ccc(I)c(F)c2)nc1C(=O)O [Compound 37, 6-Amino-2-(3-fluoro-4-iodophenyl)-5-methoxypyrimidine-4-carboxylic acid]
LAMSS
  GR50 LAMSS: 1 g ai/ha
  GR80 LAMSS: 11 g ai/ha
  pest or weed control at 35 g/ha: 85 to 94%
  pest or weed control at 70 g/ha: 95 to 100%
[1]
  pest or weed control at 35 g/ha: 95 to 100%
  pest or weed control at 70 g/ha: 95 to 100%
  GR50 PAPRH: 1 g ai/ha
  GR80 PAPRH: 1 g ai/ha
[2]; Table 8, 21 d
  GR50 VERPE: 15 g ai/ha
  GR80 VERPE: 66 g ai/ha
[2]; [3]
  pest or weed control at 35 g/ha: 60 to 74%
  pest or weed control at 70 g/ha: 75 to 84%

## Nc1cc(-c2ccc(I)cc2F)nc(C(=O)O)c1Cl [Compound 124]
LAMSS
  GR50 LAMSS: 1 g ai/ha
  GR80 LAMSS: 1 g ai/ha
  pest or weed control at 35 g/ha: 95 to 100%
  pest or weed control at 70 g/ha: 95 to 100%
[1]
  pest or weed control at 35 g/ha: 95 to 100%
  pest or weed control at 70 g/ha: 95 to 100%
  GR50 PAPRH: 1 g ai/ha
  GR80 PAPRH: 1 g ai/ha
[2]; Table 8, 21 d
  GR50 VERPE: 20 g ai/ha
  GR80 VERPE: 39 g ai/ha
[2]; [3]
  pest or weed control at 35 g/ha: 75 to 84%
  pest or weed control at 70 g/ha: 85 to 94%

## Nc1c(Cl)c(C(=O)O)nc(-c2ccc(Br)c(F)c2)c1Cl [Compound 43, 4-Amino-6-(4-bromo-3-fluorophenyl)-3,5-dichloropicolinic acid]
LAMSS
  GR50 LAMSS: 1 g ai/ha
  GR80 LAMSS: 10 g ai/ha
  pest or weed control at 35 g/ha: 85 to 94%
  pest or weed control at 70 g/ha: 85 to 94%
[1]
  pest or weed control at 35 g/ha: 95 to 100%
  pest or weed control at 70 g/ha: 95 to 100%
  GR50 PAPRH: 1 g ai/ha
  GR80 PAPRH: 1 g ai/ha
[2]; Table 8, 21 d
  GR50 VERPE: 33 g ai/ha
  GR80 VERPE: >140 g ai/ha
[2]; [3]
  pest or weed control at 35 g/ha: 30 to 44%
  pest or weed control at 70 g/ha: 75 to 84%

## COC(=O)c1nc(-c2ccc(Br)c(F)c2)nc(N)c1OC [Compound 171, Methyl 6-amino-2-(4-bromo-3-fluorophenyl)-5-methoxypyrimidine-4-carboxylate]
LAMSS
  GR50 LAMSS: 2 g ai/ha
  GR80 LAMSS: 11 g ai/ha
  pest or weed control at 35 g/ha: 85 to 94%
  pest or weed control at 70 g/ha: 95 to 100%
[1]
  pest or weed control at 35 g/ha: 95 to 100%
  pest or weed control at 70 g/ha: 95 to 100%
  GR50 PAPRH: 1 g ai/ha
  GR80 PAPRH: 1 g ai/ha
[2]; Table 8, 21 d
  GR50 VERPE: 4 g ai/ha
  GR80 VERPE: 27 g ai/ha
[2]; [3]
  pest or weed control at 35 g/ha: 85 to 94%
  pest or weed control at 70 g/ha: 85 to 94%

## COC(=O)c1nc(-c2ccc(I)c(F)c2)nc(N)c1OC [Compound 27, Methyl 6-amino-2-(3-fluoro-4-iodophenyl)-5-methoxypyrimidine-4-carboxylate]
LAMSS
  GR50 LAMSS: 1 g ai/ha
  GR80 LAMSS: 14 g ai/ha
  pest or weed control at 35 g/ha: 85 to 94%
  pest or weed control at 70 g/ha: 85 to 94%
[1]
  pest or weed control at 35 g/ha: 95 to 100%
  pest or weed control at 70 g/ha: 95 to 100%
  GR50 PAPRH: 1 g ai/ha
  GR80 PAPRH: 1 g ai/ha
[2]; Table 8, 21 d
  GR50 VERPE: 5 g ai/ha
  GR80 VERPE: 42 g ai/ha
[2]; [3]
  pest or weed control at 35 g/ha: 75 to 84%
  pest or weed control at 70 g/ha: 85 to 94%

## Nc1c(F)c(-c2cc(F)c(I)cc2F)nc(C(=O)O)c1Cl [Compound 69]
[2]; [4]
  pest or weed control at 35 g/ha: 85 to 94%
  pest or weed control at 70 g/ha: 95 to 100%
[2]; 21 days after application
  GR50 VERPE: 1 g ai/ha
  GR80 VERPE: 4 g ai/ha

## Nc1c(Cl)c(C(=O)O)nc(-c2ccc(I)c(F)c2)c1Cl [Compound 145, 4-Amino-3,5-dichloro-6-(3-fluoro-4-iodophenyl)picolinic acid]
LAMSS
  GR50 LAMSS: 4 g ai/ha
  GR80 LAMSS: 13 g ai/ha
  pest or weed control at 35 g/ha: 95 to 100%
  pest or weed control at 70 g/ha: 95 to 100%
  pest or weed control at 140 g/ha: 95 to 100%
[1]
  pest or weed control at 35 g/ha: 95 to 100%
  pest or weed control at 70 g/ha: 95 to 100%
  pest or weed control at 140 g/ha: 95 to 100%
  GR50 PAPRH: 1 g ai/ha
  GR80 PAPRH: 1 g ai/ha
[2]; Table 8, 21 d
  GR50 VERPE: 1 g ai/ha
  GR80 VERPE: 10 g ai/ha
[2]; [3]
  pest or weed control at 35 g/ha: 85 to 94%
  pest or weed control at 70 g/ha: 85 to 94%
  pest or weed control at 140 g/ha: 95 to 100%
